This is an account of results in patent US20050208468A1, “Assays with primary cells” (priority 2003, published 2005).

Series [1] relates to primary human renal proximal tubule epithelial (HRPTE) cells. The series can be described thus: proliferative response (S-phase index) of primary HRPTE cells. In kind it is cell-based. The settings on record: HRPTE cells in 96-well microplate wells or on coded carriers; various concentrations; FIG. 6. The protocol:
This example describes how multiplexed analysis using coded carriers may be used to assay the effects of camptothecin on the proliferative response of primary human renal proximal tubule epithelial (HRPTE) cells, in accordance with aspects of the present teachings; see FIG. 6.
Specifically, HRPTE cells are grown directly in wells of a standard 96-well microplate, to three different cell densities (indicated as the stated number of cells), or on coded carriers that optionally may be placed in wells of the microplate. An “S-phase index” (e.g., the fraction of cells in the S-phase of the cell cycle) is used as a measure of cell proliferation. […] This reduction may be particularly significant in assays on primary cells, because primary cells typically are difficult to obtain and maintain.

A further series relates to HRPTE cells. The series can be described thus: cytotoxicity response (death index, live/dead assay) of HRPTE cells. In kind it is cell-based, human. The settings on record: HRPTE cells in 96-well microplate wells or on coded carriers; various concentrations; FIG. 7. The protocol: This example describes how multiplexed analysis using coded carriers may be used to study the cytotoxicity response of HRPTE cells to staurosporine, in accordance with aspects of the present teachings; see FIG. 7.
Specifically, HRPTE cells are grown directly attached to wells of a standard 96-well microplate, or on coded carriers that optionally may be placed in wells of the microplate. A “death index” (e.g., the fraction of observed cells that are dead) may be used as a measure of cytotoxicity. The death index may be computed using any suitable mechanism, such as a fluorescence-based “live/dead assay.” In an exemplary version of the assay, live cells are labeled green using a membrane-permeant calcein AM, which is cleaved by esterases in live cells to yield cytoplasmic green fluorescence, and dead cells are labeled red using a membrane-impermeant ethidium homodimer-1, which passes through the compromised membranes of dead cells to label nucleic acids with red fluorescence. […] This reduction may be particularly significant in assays on primary cells, because primary cells typically are difficult to obtain and maintain.

The subject of a further series is PPARγ. The series can be described thus: PPARγ activity assay based on PEPCK expression, coded carriers in a shared fluid volume. It counts as cell-based, human. The note with it: four donor samples in a shared fluid volume; four days; FIG. 12.

Text for PPARγ: This differentiation may be visualized readily and scored by staining lipid droplets that accumulate in the cytoplasm of the adipocytes during and/or after their differentiation. Furthermore, this adipocyte differentiation and/or activation of PPARγ may be followed by measuring the expression levels (RNA and/or protein) of PPARγ target genes (direct or indirect targets), such as PEPCK (phosphoenolpyruvate carboxykinsae) and/or FABP4 (fatty acid binding protein 4), among others.
Staining was via indirect immunofluorescence. Cells were counterstained with a nuclear dye (Hoechst) for data normalization, here and in other assays. […] Each sample of primary cells corresponds to pre-adipocytes isolated from visceral tissue (samples starting with the letter “V”) or isolated from subcutaneous tissue (samples starting with the letters “SC”) and were supplied by Cambrex. […] Each sample was connected to a distinct class of coded carriers (having a distinct code) to permit identification of the sample after combining the different classes of carrier and samples in a shared volume. […] Lipid accumulation and PEPCK expression were then measured with the samples still disposed in the same microplate wells. […]

In the case of `CC[C@@]1(O)C(=O)OCc2c1cc1n(c2=O)Cc2cc3ccccc3nc2-1` [camptothecin], in series [1], the “S-phase index (measure of cell proliferation)” value was “S-phase index generally decreases with increasing camptothecin concentration”.

As to `CN[C@@H]1C[C@H]2O[C@@](C)([C@@H]1OC)n1c3ccccc3c3c4c(c5c6ccccc6n2c5c31)C(=O)NC4` [staurosporine], the “death index (fraction of dead cells)” value with HRPTE cells was “generally increases with increasing staurosporine concentration”.

As to `COc1ccc2c(c1)c(CC(=O)O)c(C)n2C(=O)c1ccc(Cl)cc1` [Indomethacin, indomethacin], the “induction of PEPCK expression as a measure of PPARγ activity” value with PPARγ was “relatively strong induction”.
